According to patent US20100273656A1, “COMPOSITION AND METHOD FOR SELECTIVE HERBICIDE” (priority 2002, published 2010):

Experiments:
grass [1] = assay: Example 2 field test of FeEDDS and FeHEDTA at pH 3 and 7, grass; assay type: in vivo; details: in vivo
Protocol: (§1) The following non-limiting examples serve to further describe the invention. Unless otherwise specified, all of the iron solutions were made using the same molar concentration of iron ion as chelating agent. All of the outside tests were done on areas of mixed grass and dandelions that were at least 2 months old. For the greenhouse tests, dandelions were grown in a commercial greenhouse mix, using supplemental lighting and heating. Each plant was grown in a 2¼ inch pot to a minimum diameter of 20 cm. All of the solutions were sprayed onto the plants at a rate of 100 ml/m^2. The ferrous sulfate formulations that were used in examples 1, 2, 8 and 9 contained 1% iron (180 mM), 18 mM EDTA, 1% citric acid and 0.5% urea. In all of the examples, the amount of iron is identified in brackets as the percent iron on a weight basis.
(§2) All plant damage was assessed using a qualitative rating scale from 0 to 9.
The FeEDDS and FeHEDTA solutions contained 0.2% Fe^+3 (35.8 mM). The ferrous sulfate contained 1% Fe^+2 (179.1 mM). The solutions were sprayed at a rate of 0.1 L/m^2 onto 2 plots of 0.5 m^2 of mixed grass and dandelions. Observations were made 4 days after spraying.

dandelion [2] = assay: Example 21 Fe chelates with Killex, dandelion; assay type: in vivo, Taraxacum officinale; details: A29 = 29 days after treatment
Protocol: (§3) Plants were fertilized with an all purpose water-soluble fertilizer mix of 20-20-20 (N-P-K; Plant-Prod®) as needed. All broadleaf weeds were grown individually in a 2¼-inch pot until they were a suitable size for herbicide tests (actual weed size is reported in examples below). Perennial ryegrass was also grown in 2¼-inch pots, however many grass seeds were sown in the pot to simulate a small section of turf. Grass plants were continually trimmed to a height of 4 cm, simulating that of a homeowner's lawn. For field tests, plots ¼ m^2 in size were marked out in areas containing the targeted broadleaf weed species growing in turf grass. Plots were continually mowed to simulate a homeowner's lawn. […] In all of the examples, the amounts of the various herbicide components are identified as a percent on a weight basis.
(§4) Killex® (Scotts Canada, Ltd., Ontario, Canada) is a commonly used selective lawn herbicide and was used as the commercial herbicide for herbicide combinations. The labeled dilution and application rates for Killex® are 6 ml into 1 L of solution (0.6%) applied at 200 ml/m^2.
(§5) All visual plant damage assessments were made using a quantitative rating scale; percent control relative to the untreated check (0=no effect; 100=plant death).
Materials and Methods: This trial was conducted in the greenhouse. […] Phytotoxicity (%) was assessed 29 days after treatment (A29).

dandelion [3] = assay: Example 14 field dandelion test of iron chelates and 50:50 mixtures; assay type: in vivo, Taraxacum officinale; parameters: Surviving Dandelions (%): concentration or dose not given beside the values
Excerpt: Solutions were made of FeHEDTA (0.2% Fe), FeEDTA (0.2% Fe), FeEDDS (0.4% Fe), and FeMGDA (0.4% Fe). For the combinations, these 4 solutions were mixed together in a 1:1 ratio. The plots (0.25 m^2) were sprayed 3 times at weekly intervals at a rate of 0.1 L/m^2. The plots contained a mixture of dandelion and hard fescue turfgrass.

dandelions = assay: Example 6 various Fe chelates, dandelion phytotoxicity; assay type: in vivo, Taraxacum officinale
Protocol: as §1, §2
This test compared EDG (ethanol diglycine) and EDDS at 0.4% Fe+3 (71.6 mM), with HEDTA 0.2% Fe+3 (35.8 mM). FeEDDS and FeEDG were made with 100% excess chelating agent. FeHEDTA was made with 10% excess chelating agent. The solutions were sprayed onto greenhouse grown dandelions. The plants were resprayed after 7 days.

grass [4] = assay: Example 1 field test of iron chelates, grass damage; assay type: in vivo; details: in vivo
Protocol: as §1, §2
All of the iron chelates were sprayed once at 0.2% Fe^+3 (35.8 mM), at a volume of 100 ml/m^2 onto 0.5 m^2 areas of mixed grass and dandelions. The spraying of the test was followed by 2 days of rain-free weather. Observations were made 5 days after spraying.

white clover [5] = assay: Example 22 field test FeIDS and/or FeHEDTA with Killex, white clover; assay type: in vivo; details: A7 = 7 days after treatment
Protocol: as §3, with “basis. […]” for “basis.”
as §5
Materials and Methods: Plots ¼ m^2 in size were marked out in white clover and Park Lawn (turfgrass mixture comprising of 65% perennial ryegrass, 25% chewings/creeping red fescue and 10% Kentucky bluegrass) area in the field. […] Phytotoxicity (%) was assessed on 7 days after treatment (A7).

white clover [6] = assay: Example 17 iron chelates with Killex, white clover; assay type: in vivo
Protocol: as §3, §4, §5
Materials and Methods: This trial was conducted in the greenhouse. Nine pots of white clover and 10 pots of perennial ryegrass were selected for each treatment. Herbicidal solutions were prepared using deionized water. The treatments were applied using a handheld trigger sprayer at 200 ml/m^2. All treatments were applied once. Phytotoxicity (%) was assessed 4, 7, and 14 days after application (A4, A7, and A14).

perennial ryegrass = assay: Example 19 FeHEDTA with Killex at reduced rates, perennial ryegrass; assay type: in vivo; details: Killex ® 0%, 7 days after application
Protocol: as §3, §4, §5
Materials and Methods: This trial was conducted in the greenhouse. Ten broadleaf plantain plants and 5 pots of perennial ryegrass were selected for each treatment. Herbicide solutions were prepared using deionized water. The treatments were applied using a hand-trigger sprayer at 200 ml/m^2. All treatments were applied once. Phytotoxicity (%) was assessed 7 days after application (A7).

SMILES: O=C([O-])CN(CCO)CCN(CC(=O)[O-])CC(=O)[O-].[Fe+3] [FeHEDTA]
- Grass Damage (0 to 9) (grass [1]; pH 2.6): 0.0 0 to 9
- Grass Damage (0 to 9) (grass [1]; pH 7): 1.0 0 to 9
- Phytotoxicity (%) against dandelion (dandelion [2]): 24%
- Area Covered by Dandelion (%) (dandelion [3]; day 0): 40%
- Dandelion Count (#/0.25 m^2) (dandelion [3]; day 0): 63 #/0.25 m^2
- Dandelion Count (#/0.25 m^2) (dandelion [3]; day 6): 60 #/0.25 m^2
- Surviving Dandelions (%) (dandelion [3]; day 6): 95%
- Area Covered by Dandelion (%) (dandelion [3]; day 6, sprayed 3 times at weekly intervals): 20%
- Dandelion Necrosis (%) (dandelion [3]; day 11): 95%
- Dandelion Count (#/0.25 m^2) (dandelion [3]; day 13): 40 #/0.25 m^2
- Surviving Dandelions (%) (dandelion [3]; day 13): 63%
- Area Covered by Dandelion (%) (dandelion [3]; day 15): 8%
- Dandelion Necrosis (%) (dandelion [3]; day 18): 97%
- Area Covered by Dandelion (%) (dandelion [3]; day 21): 2%
- Dandelion Count (#/0.25 m^2) (dandelion [3]; day 21): 26 #/0.25 m^2
- Surviving Dandelions (%) (dandelion [3]; day 21): 41%
- Dandelion Necrosis (%) (dandelion [3]; day 33): 97%
- Dead Plants (#/10) (dandelions; 7 + 5 days after spraying): 3 #/10
- Plant Damage (0 to 9) (dandelions; 7 + 5 days after spraying (resprayed after 7 days)): 8.1 0 to 9
- Plant Damage (0 to 9) (dandelions; 7 days after spraying): 1.3 0 to 9
- Grass Damage (0 to 9) (grass [4]): 0
- Phytotoxicity (%) against white clover (white clover [5]): 48%
- Phytotoxicity (%) against white clover (white clover [6]; A4 = 4 days after application, 0=no effect, 100=plant death): 22%
- Phytotoxicity (%) against white clover (white clover [6]; A7 = 7 days after application): 19%
- Phytotoxicity (%) against white clover (white clover [6]; A14 = 14 days after application): 15%
- A7 Phytotoxicity (%) against perennial ryegrass (perennial ryegrass; listed as FeHEDTA 0.1% Fe): 1%
- A7 Phytotoxicity (%) against perennial ryegrass (perennial ryegrass; listed as FeHEDTA 0.2% Fe): 1%
- A7 Phytotoxicity (%) against perennial ryegrass (perennial ryegrass; listed as FeHEDTA 0.4% Fe): 2%
